# Test results reported in patent publication US20110135774A1, “Process for Preparing a Plant Extract of Passiflora Alata and Use of Said Extract in Cosmetic and Pharmaceutical Compositions” (priority 2007, published 2011).
# What was measured:
# Type in all cases: cell-based
# Settings in all cases: Fibroblast
# IL-6 secretion [1] = assay: Inhibition of IL-6 secretion in human dermal fibroblasts (Example 7.1)
# Description: (§1) The objective of this test was to assess the anti-inflammatory potential of in vitro extracts, using human dermal fibroblast cultures. The statistical significance (p<0.05) of the data was verified by the analysis of variance (One-Way ANOVA) followed by a Tukey multiple comparison using the SYSTAT 10 software.
# (§2) Human fibroblasts derived from the dermis were incubated with lipopolysaccharide (LPS) of Escherichia coli to induce the secretion of pro-inflammatory citokines IL-6 and IL-8 (Interleukin 6 and 8). The anti-inflammatory potential of the sample was identified by the reduction in the secretion of the pro-inflammatory markers. • Material used: Dermis-derived human fibroblasts, kept in culture until the tenth passage at most. […]
# (§3) After stimulation, supernatants were collected, stored at −20° C. and analysed by ELISA (described below). In order to keep cell viability after stimulation, the cells were incubated with a Neutral Red solution for 3 hours and after washing with 200 μl of PBS, 200 μl of development solution were added, and the reading was performed at 540 nm. […]
# (§4) For the ELISA test, 96-well plates were used. The quantification of pro-inflammatory markers was determined from the comparisons with the standard curves specifically constructed for IL-6 or IL-8. […]
# IL-8 secretion [2] = assay: Inhibition of IL-8 secretion in human dermal fibroblasts (Example 7.1)
# Description: as §1, §2, §3, §4
# IL-6 secretion [3] = assay: Inhibition of IL-6 secretion in human dermal fibroblasts stimulated with LPS or UVB (Example 7.2)
# Description: (§5) Dermis-derived human fibroblasts were incubated with lipopolysaccharide (LPS) or UV to induce the secretion of pro-inflammatory markers IL-6 and IL-8. The anti-inflammatory potential of the sample was identified by the reduction in the secretion of the pro-inflammatory markers. Material used: Dermis-derived human fibroblasts, kept in culture until the tenth passage at most. Sterile-culture plates with 96 wells, non-sterile plates with 96 wells, conical tubes of 15 ml and 50 ml, radiation chamber with UVB lamp. 96-well plates were prepared with 2×10^4 cells/well in 100 μl μl of DMEM containing 10% SFB. The cells were incubated overnight in a CO2 oven. The culture medium was discarded and the wells were washed with 200 μl PBS. 100 μl of DMEM containing 1% SFB and the suitable stimuli were added. Incubation was carried out in a CO2 oven overnight. […] 100 μl of PBS and the suitable stimuli were added. […] After stimulation, supernatants were collected, stored at −20° C. and assessed by ELISA (described below). In order to keep cell viability after stimulation, the cells were incubated with a Neutral Red solution for 3 hours and, after washing with 200 μl of PBS, 200 μl of development solution were added, and the reading was performed at 540 nm. […] The quantification of pro-inflammatory markers was determined from the comparisons with the standard curves specifically constructed for IL-6 or IL-8. […]
# IL-8 secretion [4] = assay: Inhibition of IL-8 secretion in human dermal fibroblasts stimulated with LPS or UVB (Example 7.2)
# Description: as §5
# [5] = 5 uM + LPS 10 ng/ml, reference LPS
# [6] = 5 uM, no LPS, reference Control
# [7] = LPS 10 ng/ml + 5 uM, reference LPS
# [8] = light or radiation study, UVB 0.23 J/cm2 + 5 uM, reference UVB
Compound,inhibition at 5 µM (IL-6 secretion [1]; [5]) [%],inhibition at 5 µM (IL-6 secretion [1]; [6]) [%],inhibition at 5 µM (IL-8 secretion [2]; [5]) [%],inhibition at 5 µM (IL-8 secretion [2]; [6]) [%],inhibition at 5 µM (IL-6 secretion [3]; [7]) [%],inhibition at 5 µM (IL-8 secretion [4]; [7]) [%],inhibition at 5 µM (IL-6 secretion [3]; [8]) [%],inhibition at 5 µM (IL-8 secretion [4]; [8]) [%]
C[C@@H]1C[C@H]2[C@@H]3CCC4=CC(=O)C=C[C@]4(C)[C@@]3(F)[C@@H](O)C[C@]2(C)[C@@]1(O)C(=O)CO [Dexamethasone],96,71,53,68,94,82,–,–
C[C@]12CCC(=O)C=C1CC[C@@H]1[C@@H]2[C@@H](O)C[C@@]2(C)[C@H]1CC[C@]2(O)C(=O)CO [Hydrocortisone],–,–,–,–,–,–,71,79
